Assay results taken from BindingDB's records for doi:10.7270/Q2DV1H9K (University of Pittsburgh, 2008).

Target: Cyclin-dependent kinase 7 (Homo sapiens, UniProt P50613)
Experiment: CDK7 kinase inhibition, dose response, counter-screen for PKD inhibitor project, biochemical, 57K library addition (AID 1380)

Chain of Cyclin-dependent kinase 7 (P50613 whole entry): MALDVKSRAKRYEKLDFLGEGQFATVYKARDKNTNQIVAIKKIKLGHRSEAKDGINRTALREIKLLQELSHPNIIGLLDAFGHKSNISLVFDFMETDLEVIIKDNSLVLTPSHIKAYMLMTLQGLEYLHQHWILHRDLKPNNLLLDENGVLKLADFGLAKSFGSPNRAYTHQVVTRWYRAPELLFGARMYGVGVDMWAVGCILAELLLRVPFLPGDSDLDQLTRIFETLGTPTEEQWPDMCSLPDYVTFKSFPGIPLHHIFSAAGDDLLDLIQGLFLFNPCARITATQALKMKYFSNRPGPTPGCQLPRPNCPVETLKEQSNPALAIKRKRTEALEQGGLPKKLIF

With `CSc1ccccc1C(=O)NCc1ccc(F)cc1` as the molecule, how does the IC50 read?
The IC50 was over 100 µM.

Which IC50 does the source give for `O=C(CSc1ccc2nnc(-c3cccnc3)n2n1)c1ccccc1` [1-phenyl-2-[[3-(3-pyridinyl)-[1,2,4]triazolo[4,3-b]pyridazin-6-yl]thio]ethanone] here?
The IC50 was over 100 µM.

With `CCOC(=O)c1sc(=NC(=O)CCS(=O)(=O)c2ccccc2)n(C)c1C` [2-[3-(benzenesulfonyl)-1-oxopropyl]imino-3,4-dimethyl-5-thiazolecarboxylic acid ethyl ester] as the molecule, how does the IC50 read?
The IC50 was over 100 µM.

For `CCCc1cc(=O)[nH]c(SCCCCN2C(=O)c3ccccc3C2=O)n1` [2-[4-[(4-oxidanylidene-6-propyl-1H-pyrimidin-2-yl)sulfanyl]butyl]isoindole-1,3-dione], which IC50 is on record?
Its IC50 is over 100 µM.

Which IC50 does the source give for `Cc1c(C#N)c(N)nc(Cl)c1C#N` [2-amino-6-chloro-4-methyl-3,5-pyridinedicarbonitrile] here?
The IC50 was over 100 µM.

How did the IC50 turn out when `CC(N=Nc1ncc(Cl)cc1Cl)c1ccccn1` (stereo not drawn) [3,5-dichloro-N-(1-pyridin-2-ylethylideneamino)pyridin-2-amine] was run?
The IC50 was over 100 µM.

For `O=C1CSCN1c1cc(Cl)ccc1Cl` [3-(2,5-dichlorophenyl)-1,3-thiazolan-4-one], which IC50 is on record?
The IC50 was over 100 µM.

With `O=C(O)c1cc(C(=O)C2CCCCC2)c[nH]1` [4-(cyclohexylcarbonyl)-1H-pyrrole-2-carboxylic acid] as the molecule, how does the IC50 read?
The IC50 was over 100 µM.

For `CC1Cc2ccccc2N1c1ncnc(N)c1[N+](=O)[O-]` (stereo not drawn) [6-(2-methyl-2,3-dihydro-1H-indol-1-yl)-5-nitro-4-pyrimidinamine], which IC50 is on record?
The IC50 was 8.22 µM.

`O=[N+]([O-])c1ccc(Nc2c3ccccc3nc3ccccc23)cc1` [MLS000723809] was tested. Which IC50 did it give?
The IC50 was over 100 µM.

With `COc1ccc(Cn2c(=O)[nH]c3cc(C(=O)NC4CCCC4)ccc3c2=O)cc1` [MLS000730065] as the molecule, how does the IC50 read?
Its IC50 is over 100 µM.

With `Cc1cc(NC(=O)CCC(=O)N(Cc2ccco2)C(C(=O)NCC2CCCO2)c2ccncc2)no1` (stereo not drawn) [N'-(furan-2-ylmethyl)-N-(5-methyl-1,2-oxazol-3-yl)-N'-[2-oxidanylidene-2-(oxolan-2-ylmethylamino)-1-pyridin-4-yl-ethyl]butanediamide] as the molecule, how does the IC50 read?
Its IC50 is over 100 µM.

With `O=C(CSc1ccncc1)Nc1ccc2ccccc2c1` [N-naphthalen-2-yl-2-pyridin-4-ylsulfanylacetamide] as the molecule, how does the IC50 read?
The IC50 was over 100 µM.

With `O=C(NNC1=Nc2cccc3cccc1c23)c1ccc(Br)cc1` [SMR000260645] as the molecule, how does the IC50 read?
Its IC50 is over 100 µM.

How did the IC50 turn out when `O=C(Nc1ccccc1C(=O)N1CCCC1)C1COc2ccccc2O1` (stereo not drawn) [SMR000287780] was run?
The IC50 was over 100 µM.

For `COC(=O)c1c(NC(=O)C2C3CCC(C3)C2C(=O)O)sc2c1CCCCC2` (stereo not drawn) [SMR000298221], which IC50 is on record?
Its IC50 is over 100 µM.

How did the IC50 turn out when `COc1ccc(CNC(=O)C2Cc3ccccc3CN2C(=O)c2ccco2)cc1` (stereo not drawn) [SMR000343177] was run?
Its IC50 is over 100 µM.

For `Cn1cccc1C(=O)NC(=O)COC(=O)c1cc(S(=O)(=O)N2CCCCC2)ccc1Cl` [[2-[(1-methylpyrrol-2-yl)carbonylamino]-2-oxidanylidene-ethyl] 2-chloranyl-5-piperidin-1-ylsulfonyl-benzoate], which IC50 is on record?
The IC50 was over 100 µM.
